{
  "source": "patent US20130064815A1",
  "about": "“INDUCING APOPTOSIS IN QUIESCENT CELLS” (THE TRUSTEES OF PRINCETON UNIVERSITY, priority 2011, published 2013)",
  "key": {"[1]": {"system": "primary human fibroblasts", "experiment": "caspase 3/7 activity apoptosis assay (ApoTox-Glo) in proliferating and quiescent fibroblasts", "format": "cell-based", "conditions": "MG132 0 to 10 μM; proliferating and serum-starved cells", "procedure": "Referring to FIG. 2A, primary human fibroblasts were tested either in a proliferating state or after being induced into quiescence. Quiescence may be induced by either contact inhibition or serum starvation. Cells were treated with DHEA for four days, with bafilomycin added on the fourth day. Apoptosis was assessed based on the activity of caspase 3/7 for a fluorogenic substrate.\nPPP inhibition and apoptosis analysis: Apoptosis was measured based on the levels of caspase 3/7 released into the media using the ApoTox-Glo Triplex Assay according to the manufacturer's instructions (Promega Corp., Madison, Wis.). Cells were plated in triplicate at 10,000 cells per well in white-walled, clear-bottom 96-well plates (Costar, Corning Life Sciences, Lowell, Mass.). For contact inhibition, cells were plated 7 days prior to the start of treatment, for serum starvation cells were plated 4 days prior to treatment and switched to 0.1% serum media for the remaining 3 days, while proliferating cells were plated the day prior to the start of treatment. […] Cells in serum starvation conditions were incubated in 0.1% serum during treatment as well. The apoptosis reagent was added at 100 μl per well and incubated for 1 h prior to reading. Luminescence was read from the top using a Synergy-2 plate reader (Biotek, Winooski, Vt.). Luminescence data were normalized to the vehicle only condition.\nApoptosis induction was assessed by monitoring caspase 3/7 activity using a luminescent caspase substrate. This assay is optimized for high-throughput screening in 96-well plates and allows multiple concentrations and combination of drugs to be tested in triplicate at different time points. […] Therefore, this assay was used to compare proliferating and serum-starved cells only."}, "[2]": {"experiment": "annexin V / PI flow cytometry after proteasome inhibition", "format": "cell-based, human", "conditions": "human", "procedure": "(§1) To elucidate the responses of proliferating and quiescent fibroblasts to proteasome inhibition, the effects of known proteasome inhibitors on proliferating and quiescent fibroblasts were examined.\n(§2) At the highest dose (10 μM), approximately 50% of proliferating cells were apoptotic (FIG. 24A-lower right (Q4), upper right (Q2), and upper left (Q1) quadrants represent early apoptosis, late apoptosis, and very late apoptosis or necrosis, respectively). In comparison, quiescent fibroblasts were largely unaffected by MG132 treatment, showing far lower levels of apoptosis."}, "[3]": {"system": "proliferating and quiescent fibroblasts", "experiment": "annexin V / PI flow cytometry after proteasome inhibition", "format": "cell-based, human", "conditions": "for cells with signs of apoptosis: highest dose (10 μM)", "procedure": "as §1, §2"}, "LC3-II": {"system": "LC3-II", "experiment": "LC3-II immunoblot (autophagy / autophagic flux)", "format": "cell-based, human", "conditions": "MG132 treatment; proliferating, contact-inhibited and serum-starved states", "procedure": "The levels of autophagy components—Atg5/Atg12, Atg7, Atg3, and LC3-I and LC3-II—were monitored in proliferating and contact-inhibited fibroblasts using immunoblotting (FIG. 21A). As a positive control for autophagy induction, samples of cells in each cell cycle state were also incubated in Kreb's Ringer Bicarbonate solution (KRB), a protocol that induces autophagy through amino acid starvation and elimination of other nutrients except glucose. Levels of Atg5/Atg12, Atg7, and LC3-II were elevated in all of the amino acid starvation and contact-inhibition states as compared to the proliferating state (FIG. 21A). Atg3 was induced in all quiescent states compared with proliferating states, including amino acid starvation. In order to differentiate whether the high levels of autophagy proteins resulted from a blockade of autophagy degradation or active flux through the pathway, we monitored the levels of LC3-II in proliferating and 7 dCI fibroblasts in the presence of bafilomycin A1 (Baf-A1). Baf-A1 is a vacuolar-type H^+-ATPase inhibitor that prevents autophagosome fusion with the lysosome due to an increase in lysosomal pH. […] This finding is consistent with active autophagic flux in quiescent fibroblasts\nIn addition to its role in providing amino acids and energy under starvation conditions, autophagy is involved in maintenance of cellular homeostasis and resistance to tumorigenesis through degradation of old or damaged proteins and entire organelles. It was hypothesized that autophagy in contact-inhibited cells could function to degrade old and/or damaged proteins that would otherwise accumulate in the cytoplasm due to lack of cell division as a mechanism for dilution of these proteins. Oxidation of proteins causes the formation of carbonyl groups on amino acids, and carbonylation can disrupt protein function. To monitor the extent of protein oxidation in proliferating and contact-inhibited fibroblasts, the protein carbonyl groups were derivatized using 2,4-dinitrophenylhydrazine (DNP), and monitored using immunoblotting with an antibody that recognizes the covalently added DNP. The levels of oxidized proteins in proliferating and 7 dCI fibroblasts were monitored in cells that were either competent to perform autophagy (control), or were stably expressing an shRNA against the essential autophagy components Atg5 (sh-Atg5) or Atg7 (sh-Atg7), which are known to represent autophagy-defective phenotypes in other model systems. […] In contact-inhibited fibroblasts, in contrast, the levels of oxidized proteins increased 1.5-fold±0.1 in 7 dCI sh-Atg5 fibroblasts as compared to vector control counterparts (p=0.009) (FIG. 22B). […]\nTo test this hypothesis, the levels of an autophagy-specific form of the LC3 protein, LC3 II, were monitored compared to a housekeeping protein (Klionsky et al., 2008, “Guidelines for the use and interpretation of assays for monitoring autophagy in higher eukaryotes,” Autophagy 4, 151-175, which is incorporated herein by reference as if fully set forth). […]\nWe observed an increase in the ratio of LC3 II to GAPDH in response to MG132 treatment for cells in proliferating, contact-inhibited and serum-starved states (FIG. 25B). To test whether the high levels of LC3 II in quiescent cells in response to MG132 treatment result from a blockade of autophagy degradation or from active flux through the pathway, LC3 II levels were monitored in proliferating and quiescent fibroblasts treated with MG132 in the presence or absence of bafilomycin A1 (Baf). […]"}, "MnSOD": {"system": "MnSOD", "experiment": "MnSOD expression after MG132 (microarray, Western blot)", "format": "cell-based, human", "from_the_text": "(§3) Other researchers have reported that there is a correlation between proliferative status and sensitivity to oxidative stress in human fibroblasts (Naderi et al., 2003, “Oxidative stress-induced apoptosis in dividing fibroblasts involves activation of p38 MAP kinase and over-expression of Bax: resistance of quiescent cells to oxidative stress, Apoptosis 8, 91-100, which is incorporated herein by reference as if fully set forth). […] A Western blot analysis was used to monitor the levels of the ROS detoxifying enzymes MnSOD and catalase, an enzyme that converts hydrogen peroxide to water and oxygen. The protein concentrations of MnSOD and catalase were higher in quiescent fibroblasts than in proliferating cells (FIG. 26B), consistent with a previous report (Sarsour et al., 2008, “Manganese superoxide dismutase activity regulates transitions between quiescent and proliferative growth, Aging cell 7, 405-417, which is incorporated herein by reference as if fully set forth). […] It was hypothesized that the higher levels of ROS-detoxifying enzymes in quiescent fibroblasts contributes to the protection of quiescent fibroblasts from proteasome inhibition-induced apoptosis. Intracellular superoxide levels were monitored using dihydroethidium (DHE), an indicator of superoxide anions."}, "superoxide": {"system": "superoxide", "experiment": "intracellular superoxide levels with dihydroethidium (DHE)", "format": "cell-based, human", "conditions": "proteasome inhibition", "from_the_text": "as §3"}},
  "note": "Where a SMILES comes first, the peptide text is derived from it. The star is where a group is joined. Cbz = O=C(OCc1ccccc1)*",
  "data": [
    {"smiles": "CC(C)C[C@@H](C=O)NC(=O)[C@H](CC(C)C)NC(=O)[C@H](CC(C)C)NC(=O)OCc1ccccc1", "note": "[MG132] (Cbz-Leu-Leu-Leu-aldehyde)", "values": [
      {"measurement": "caspase 3/7 activity", "setting": "[1]", "result": "dose-dependent increases"},
      {"measurement": "cytotoxicity at 24 h, 10 μM", "setting": "[2]", "result": "~50", "unit": "%"},
      {"measurement": "viability, quiescent vs proliferating fibroblasts", "setting": "[3]; 48 hours of treatment", "result": "significantly higher number of quiescent fibroblasts maintained viability"},
      {"measurement": "cells with signs of apoptosis", "setting": "[3]; contact-inhibited fibroblasts, 24 hours", "result": "approximately 14%"},
      {"measurement": "apoptotic cells (annexin V and PI)", "setting": "[3]; proliferating cells, 10 μM, 24 hours", "result": "approximately 50%"},
      {"measurement": "proliferating cell viability (fraction PI negative)", "setting": "[3]; proliferating cells, 24 hours", "result": "statistically significant, dose-dependent decrease"},
      {"measurement": "quiescent cell viability", "setting": "[3]; quiescent cells, 24 hours, up to 10 μM MG132, 1 μM epoxomicin", "result": "maintained high viability"},
      {"measurement": "cells with signs of apoptosis", "setting": "[3]; serum-starved fibroblasts, 24 hours", "result": "~10", "unit": "%"},
      {"measurement": "ratio of LC3 II to GAPDH", "setting": "LC3-II", "result": "increase"},
      {"measurement": "MnSOD protein levels", "setting": "MnSOD; Western blot, proliferating and quiescent fibroblasts", "result": "further elevated MnSOD levels"},
      {"measurement": "MnSOD transcript expression", "setting": "MnSOD; microarray, proliferating and quiescent cells", "result": "induced MnSOD expression"},
      {"measurement": "superoxide levels", "setting": "superoxide; proliferating cells", "result": "significant induction of superoxide levels"},
      {"measurement": "superoxide levels", "setting": "superoxide; quiescent cells", "result": "maintained basal superoxide levels"}
    ]}
  ]
}
